In paper PMC2710136 (Biochemistry, 2009):
Ends that are not written are not given here.

How the values were obtained:
Conditions in all cases: SD
nSH3 domain of Grb2 = nSH3 domain of Grb2 (Homo sapiens, UniProt P62993); test: ITC binding of Sos1 peptides to wildtype nSH3 domain of Grb2
cSH3 domain of Grb2 = cSH3 domain of Grb2 (Homo sapiens, UniProt P62993); test: ITC binding of Sos1 peptides to wildtype cSH3 domain of Grb2
[1] = target: nSH3_E31A mutant domain of Grb2 (Homo sapiens, UniProt P62993, E31A); test: ITC binding of Sos1 peptides to nSH3_E31A mutant domain
[2] = target: nSH3_D33A mutant domain of Grb2 (Homo sapiens, UniProt P62993, D33A); test: ITC binding of Sos1 peptides to nSH3_D33A mutant domain
[3] = target: cSH3_D187A mutant domain of Grb2 (Homo sapiens, UniProt P62993, D187A); test: ITC binding of Sos1 peptides to cSH3_D187A mutant domain
[4] = target: cSH3_D190A mutant domain of Grb2 (Homo sapiens, UniProt P62993, D190A); test: ITC binding of Sos1 peptides to cSH3_D190A mutant domain
Chain of cSH3_D190A mutant domain of Grb2 (P62993 156-215 D190A limits assumed): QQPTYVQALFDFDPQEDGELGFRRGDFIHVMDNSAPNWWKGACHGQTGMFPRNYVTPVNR

Chain of cSH3 domain of Grb2 (P62993 156-215 limits assumed): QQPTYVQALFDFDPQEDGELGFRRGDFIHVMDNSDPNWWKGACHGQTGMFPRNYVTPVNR
Chain of nSH3 domain of Grb2 (P62993 1-58 limits assumed): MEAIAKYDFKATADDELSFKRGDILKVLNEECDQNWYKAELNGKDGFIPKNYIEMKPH
Chain of cSH3_D187A mutant domain of Grb2 (P62993 156-215 D187A limits assumed): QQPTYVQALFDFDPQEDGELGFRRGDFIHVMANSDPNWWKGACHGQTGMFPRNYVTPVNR
Chain of nSH3_D33A mutant domain of Grb2 (P62993 1-58 D33A limits assumed): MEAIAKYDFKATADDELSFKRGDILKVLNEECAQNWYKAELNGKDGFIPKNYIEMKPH
Chain of nSH3_E31A mutant domain of Grb2 (P62993 1-58 E31A limits assumed): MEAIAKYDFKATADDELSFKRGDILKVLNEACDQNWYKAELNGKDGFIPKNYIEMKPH

| Sequence | Kd (nSH3 domain of Grb2) [µM] | Kd (cSH3 domain of Grb2) [µM] | Kd [1] [µM] | Kd [2] [µM] | Kd [3] [µM] | Kd [4] [µM] |
| --- | --- | --- | --- | --- | --- | --- |
| PVPPPVPPRAAP [Peptide S1_AA] | 84 ± 1 | 1570 ± 27 | – | – | – | – |
| PVPPPVPPARRP [S1_R+5A] | 490 ± 20 | 962 ± 26 | – | – | – | – |
| PVPPPVPPAAAP [Peptide S1_AAA] | 2560 ± 335 | 3090 ± 121 | – | – | – | – |
| PVPPPVPPRARP [S1_R+6A] | 53 ± 1 | 331 ± 2 | 67 ± 0.3 | 137 ± 7.6 | 544 ± 102 | 910 ± 57 |
| PVPPPVPPRRAP [S1_R+7A] | 72 ± 1 | 318 ± 23 | 91 ± 1.2 | 169 ± 4.5 | 2390 ± 73 | 482 ± 47 |

Second part, the sequence after the results:

| Kd (nSH3 domain of Grb2) [µM] | Kd (cSH3 domain of Grb2) [µM] | Kd [1] [µM] | Kd [2] [µM] | Kd [3] [µM] | Kd [4] [µM] | Sequence |
| --- | --- | --- | --- | --- | --- | --- |
| 82 ± 1 | 1320 ± 44 | – | – | – | – | IAGPPVPPRQST [Peptide S4] |
| 56 ± 5 | 1400 ± 87 | – | – | – | – | DSPPAIPPRQPT [Peptide S2] |
| 117 ± 2 | 1720 ± 33 | – | – | – | – | ESPPLLPPREPV [Peptide S3] |
